Where a name gives a salt, the structure may show the parent alone. Read-outs that look alike come from different tables or passages of the source.
Tests used:
[1] = test system: sound induced seizures in DBA/2J audiogenic mice; assay: inhibition of sound induced seizures in audiogenic mice (anti-epileptic activity); type: in vivo; conditions: two hours before 110 decibels sound for 30 seconds, 120 min
Excerpt: One method for evaluating the potential anti-epileptic activity of selected compounds is by their ability to inhibit sound induced seizures in audiogenic mice. DBA/2J audiogenic mice experience seizures when exposed to loud noises. Compounds which prevent this phenomenon are considered to be antiepilpetic agents.
Two hours after administration, they were placed individually in glass jars and exposed to a sound stimulus of 110 decibels for 30 seconds. Each mouse was observed during the sound exposure for signs of seizure activity. A graph was prepared based upon the dose administered and the percentage of animals protected at that dose. An ED50 was calculated from the graph. In some mice the test was performed with the only modification being the addition of 100 mg/kg of probenecid IP.
The test was conducted in the following manner.
Five minutes after administration, they were placed individually in glass jars and exposed to a sound stimulus of 110 decibels for 30 seconds. Each mouse was observed during the sound exposure for signs of seizure activity. A graph was prepared based upon the dose administered and the percentage of animals protected at that dose. An ED50 was calculated from the graph. The test was also performed in separate mice with the only modification being the addition of 100 mg/kg or 200 mg/kg of probenecid IP.

[2] = sodium salt; cited from earlier work
[3] = test system: quinolinic acid induced clonic seizures in mice; assay: inhibition of quinolinic acid (intracerebroventricular) induced clonic seizures in mice; type: in vivo
Experimental: The intracerebroventricular administration of quinolinic acid induces clonic seizures in mice.
In this test, groups of 10 mice were pretreated intravenously with varying doses of R-4-Oxo-5-phosphononorvaline(hereinafter compound) ranging from 1 to 16 mg/kg. Five minutes later the mice were administered 7.7 micrograms of quinolinic acid intracerebroventricularly in a volume of 5 microliters of saline. […] A graph was prepared based upon the dose administered and the percentage of animals protected at that dose. An ED50 was calculated from the graph. The test was then repeated in separate mice with the only modification being the addition of 100 mg/kg of probenecid IP. The following ED50 's were obtained.
The protocol described above was repeated except that the compounds was administered intraperitoneally (dosage ranging from 0.5 to 32 mg/kg) and the pretreatment time was extended to 30 minutes. The following ED50 's were obtained.

**Q.** What does the source list for “3-[(phenacyl)methylamino]-2-carboxy-4,6-dichloroindole”?
**A.** ED50 ([1]; compound alone, i.p. 25 to 400 mg/kg): 183.7 mg/kg; ED50 ([1]; compound i.p. + 100 mg/kg probenecid IP): 45.4 mg/kg

**Q.** With CCCN(CCC)S(=O)(=O)c1ccc(C(=O)O)cc1 [sodium salt of probenecid] as the compound, how does the water solubility [2] read?
**A.** readily water soluble

**Q.** Which results are given for N[C@H](CC(=O)CP(=O)(O)O)C(=O)O [R-4-Oxo-5-phosphononorvaline]?
**A.** ED50 ([3]; Mus musculus, 5 min, compound alone, intravenous 1 to 16 mg/kg, five minutes before quinolinic acid 7.7 micrograms icv, read-out: ED50): 4 mg/kg; ED50 ([3]; Mus musculus, ip, 0.5 h, compound alone, intraperitoneal 0.5 to 32 mg/kg, 30 minutes pretreatment, read-out: ED50): 16.3 mg/kg; ED50 ([3]; compound intraperitoneal + probenecid (protocol as before: 100 mg/kg IP), 30 minutes pretreatment): 8.0 mg/kg; ED50 ([3]; compound intravenous + 100 mg/kg probenecid IP, five minutes before quinolinic acid 7.7 micrograms icv, 5 min): 2.3 mg/kg

Reference: patent publication US5318985A, “Potentiation of NMDA antagonists” (Merrell Dow Pharmaceuticals Inc., priority 1991, dated 1994)
